What was measured:
Format in all cases: in vivo, mice
[1] = test system: 32Dp210-luc-HSV-TK+ leukemia; test: Minimal residual disease model: GCV remission induction
Protocol: FIG. 17A-FIG. 17C depict development of a minimal residual diseased (MRD) model in 32Dp210 leukemia. (FIG. 17A) In vivo bioluminescence analysis of effects of ganciclovir (GCV) treatment of 32Dp210-luc-HSV-TK+ leukemia. Mice inoculated IV with 32Dp210-luc-HSV-TK+ leukemia on day 0 were treated for 14 days with GCV (50 mg/kg) beginning at day 14. Left panel: Day 14 after tumor inoculation, Right panel: Day 28 after tumor inoculation and day 14 of GCV treatment. […] Mean photon counts+S.E.M. per animal are plotted on the y-axis after imaging at day 14 (white bars) and day 28 after tumor inoculation (gray bars). Uninjected controls (n=5) represent normal, non-tumor bearing mice injected with luciferin to establish background levels of in vivo bioluminescence used to define “complete remission”. […] Leukemic mice with tumor progression despite GCV administration (Non-responders, n=3) are depicted in the last two lanes on the right. […] Comparison of the percentage of 32Dp210-GFP+HSVTK+ cells in peripheral blood, spleen and bone marrow of responding mice (MRD). The percentage of GFP+ cells detected by flow cytometric analysis of blood (filled circle), spleen (open triangle), and bone marrow (filled diamonds) from each mouse achieving IVIS defined remission with MRD, are indicated on the Y axis. The mean for each group is designated by a horizontal line for each group as well as the S.E.M. Mice with MRD defined by semi-quantitative in vivo bioluminescence analyses had <5% leukemic cells in all tissues examined consistent with the clinical/pathological definition of leukemic remission.
(§1) At day 10 after IV injection of 1×10^5 32Dp210-luc cells, all mice had detectable leukemia by IVIS, and began a 14 day treatment (50 mg/kg/day) with Ganciclovir (GCV) (APP Pharmaceuticals, LLC, Schaumberg, IL). A higher dose of 100 mg GCV/kg/day was administered to confirm that GCV had minimal or no effects on blood counts (Table 1).
To validate this model, mice were treated daily with GCV once 32Dp210 leukemia was evident by IVIS. […] (FIG. 17A). […] To assess responses after GCV treatment, the frequency of 32Dp210-GFP+/HSV-TK+ cells in spleen, blood, and bone marrow were quantified by flow cytometric analysis (FIG. 17C). […] Lower numbers of GFP+ leukemia cells were detected in spleen after 14 days of GCV.

[2] = test system: 32Dp210-luc-HSV-TK+ leukemia; test: Post-remission vaccination in the MRD model
Description: FIG. 18A-FIG. 18B depict the efficacy of the 32Dp210 vaccine as post-remission therapy to treat MRD. (FIG. 18A) In vivo bioluminescence analyses of 32Dp210-luc-HSV-TK leukemic mice undergoing GCV treatment with or without post-remission vaccination with 32Dp210-CD80-IL-15-IL-15Rα cells. Mice were inoculated with 1×10^5 32Dp210 cells on day 0 as indicated by the schema at the top of the figure. On day 10 mice underwent in vivo bioluminescence imaging and average photon counts per animal were plotted (upper set of bar graphs). N1-N5 represents normal, non-tumor bearing mice injected with luciferin on the same day, to establish background levels. Lanes 1-15 indicate mice inoculated with leukemia and subsequently treated with GCV according to the schema at the top of the figure. Gray bars in lanes 1-5 indicate IVIS analyses of mice that would receive 14 days GCV treatment and no further intervention; Black bars in lanes 6-15 depict IVIS analyses of mice treated with 14 days of GCV treatment that would be followed by serial vaccination with irradiated 32Dp210-IL-15/IL-15Rα/CD80 cells beginning at day 17. Lower panel of bar graphs depicts semi-quantitative IVIS studies after 5 days of GCV administration (day 15) in the same animals analyzed in the upper panel of bar graphs at day 10 after tumor inoculum. […]

Effect of GCV on CBC = conditions: after 2 weeks of treatment
Protocol: as §1
(§2) The major clinical application of an autologous AML vaccine strategy would be as post-remission immunotherapy to prolong relapse free survival in patients with MRD. To recapitulate this clinical setting, we developed a murine model of MRD for testing our vaccine. Initially, several chemotherapeutic regimens, previously shown to induce transient responses in 32Dp210 leukemia, were tested^48. […] A different strategy was therefore adopted for achieving post-remission MRD in mice with high leukemia burdens by lentivirally engineering a 32Dp210 cell line to express the herpes thymidine kinase (HSV-TK) suicide gene^36. Using this approach, treatment with ganciclovir (GCV) could be used to induce remission without the confounding immune and cytopenic effects of conventional chemotherapy^49. In this context, GCV treatment should not have a direct impact on leukemia-associated immune deviation, except as associated with reduction of tumor burden, since effects of GCV are primarily restricted to suppression of marrow proliferation, but not inhibition of immune function^50.

32Dp210 leukemia = test: Dose-finding studies of chemotherapeutic regimens in advanced 32Dp210 leukemia; conditions: data not shown
Protocol: as §2

| SMILES | mice showing remission ([1]; GCV begun on day 14 after tumor inoculation, read two weeks later (day 28)) | blasts in bone marrow ([1]; GCV-treated mice in remission) | GFP+ cells in BM ([1]; GCV-treated mice in remission, n=7/7) | GFP+ leukemia cells in spleen ([1]; after 14 days of GCV) | leukemic cells in all tissues examined ([1]; mice with MRD, blood, spleen, bone marrow) | relapse after remission ([2]; 14-day GCV with no further therapy) | response by in vivo bioluminescence ([2]; day 5 of GCV administration (day 15), 1×10^5 cells inoculated) | Lymphocytes (Effect of GCV on CBC; 100 mg GCV/kg/day) | Monocytes (Effect of GCV on CBC; 100 mg GCV/kg/day) | Neutrophils (Effect of GCV on CBC; 100 mg GCV/kg/day) | White Blood Cells (Effect of GCV on CBC; 100 mg GCV/kg/day) | decline in WBC, neutrophils, hemoglobin, or monocytes (Effect of GCV on CBC) | number of peripheral lymphocytes (Effect of GCV on CBC; remained within the normal range) | outcome of dose-finding studies in leukemic mice (32Dp210 leukemia) |
| --- | --- | --- | --- | --- | --- | --- | --- | --- | --- | --- | --- | --- | --- | --- |
| Nc1nc(O)c2ncn(COC(CO)CO)c2n1 [GCV, ganciclovir] | Seven of 10 | < 5% | < 0.5% | Lower numbers | < 5% | eventually relapsed | most of the leukemic mice had major responses | 2.036 ± 0.279 k/μL | 0.310 ± 0.0364 k/μL | 4.141 ± 0.580 k/μL | 6.638 ± 0.575 k/μL | no significant decline | only a small reduction | – |
| Nc1ccn([C@@H]2O[C@H](CO)[C@@H](O)[C@@H]2O)c(=O)n1 [cytosine arabinoside] | – | – | – | – | – | – | – | – | – | – | – | – | – | either ineffective, or resulted in both toxicity and lethality |

— patent US12186342B2, “Autologous irradiated whole cell tumor vaccines lentivirally engineered to express CD80, IL-15 and IL-15 receptor alpha” (The Regents of the University of California, priority 2016, dated 2025)
